In publication PMC8173716 (Nature nanotechnology, 2020):

Columns and labels:
NE [1] = conditions: cited from earlier work
NE [2] = experiment: vABN breath test in PA01-inoculated mice treated with sivelestat; assay type: in vivo, mouse; conditions: sivelestat before vABN delivery
mouse NE = experiment: Inhibition of mouse NE cleavage of vABNs by sivelestat, in vitro; assay type: biochemical
NE [3] = experiment: vABN breath test in WT and SERPINA1a-e knockout mice; assay type: in vivo, mouse (male C57BL/6 WT and Serpina1a-e knockout); conditions: 1 mg prophylactic A1AT, LPS
NE [4] = experiment: vABN breath test in LPS-challenged mice given prophylactic A1AT; assay type: in vivo, mouse (female C57BL/6N)
NE in mouse lung lysates = conditions: cited from earlier work
human NE = conditions: cited from earlier work

Compound: CC(C)(C)C(=O)Oc1ccc(S(=O)(=O)Nc2ccccc2C(=O)NCC(=O)O)cc1 [sivelestat]
- specific inhibition of NE (NE [1]): specifically inhibits NE
- attenuation of breath signal in infected mice (NE [2]): ~ 75%
- inhibition of mouse NE cleavage of vABNs (mouse NE): mouse NE can be inhibited using sivelestat to prevent cleavage of vABNs

Compound: A1AT: Alpha-1 antitrypsin, a protein inhibitor of NE
- neutrophil recruitment / anti-inflammatory effect (NE [1]): suppressed neutrophil recruitment, a well-documented anti-inflammatory effect of A1AT
- breath signal in A1AT-treated knockout mice vs untreated knockout mice (NE [3]; p < 0.05, n = 7–8): significantly lower than that in untreated knockout mice
- AUROC, A1AT-treated knockout vs WT with acute inflammation (NE [3]; p = 0.568): 0.60
- breath signal after LPS challenge (NE [4]; 1-mg A1AT 1–2 days before LPS challenge, vs untreated LPS-challenged controls): significantly reduce breath signal
- breath signal after LPS challenge (NE [4]; 1-mg A1AT 3 days before LPS challenge (D-3), vs untreated controls): absence of significant difference
- AUROC, untreated vs A1AT-treated (NE [4]; A1AT 1 day before LPS challenge (D-1)): 0.97
- AUROC, untreated vs A1AT-treated (NE [4]; A1AT 2 days before LPS challenge (D-2)): 0.91
- AUROC, untreated vs A1AT-treated (NE [4]; A1AT 3 days before LPS challenge (D-3)): 0.50
- correlation between breath signal and A1AT in the lungs (Pearson's r) (NE [4]; p = 0.0293): −0.6018
- protection by day 3 (NE [4]; single 1 mg AAT dose): No protection is observed by day 3

Compound: Ac-Nle(O-Bzl)-Met(O)2-Oic-Abu-ACC
- binding in mouse lung lysates (NE in mouse lung lysates): bind specifically to NE in mouse lung lysates
- selectivity for human NE (human NE): selectivity for human NE
- catalytic efficiency (kcat/Km) (human NE; fluorogenic ACC substrate): 4.79e+07 M⁻¹ s⁻¹
